Experimental data: patent US12459974B2, “Bicyclic peptide ligands specific for Nectin-4” (priority 2018, dated 2025)
*1 amine or outer side, *2 acyl side, *3 side chain or, on linkers, in order; H or OH if unused. Where a SMILES comes first, the peptide text is derived from it. Bridges are numbered along the chain shown (N, C = ends). TATA = O=C(CC[*:1])N1CN(C(=O)CC[*:2])CN(C(=O)CC[*:3])C1

Molecular target: T1, human Nectin-4 (Homo sapiens, UniProt Q96NY8)
T1 sequence (Q96NY8 32-510): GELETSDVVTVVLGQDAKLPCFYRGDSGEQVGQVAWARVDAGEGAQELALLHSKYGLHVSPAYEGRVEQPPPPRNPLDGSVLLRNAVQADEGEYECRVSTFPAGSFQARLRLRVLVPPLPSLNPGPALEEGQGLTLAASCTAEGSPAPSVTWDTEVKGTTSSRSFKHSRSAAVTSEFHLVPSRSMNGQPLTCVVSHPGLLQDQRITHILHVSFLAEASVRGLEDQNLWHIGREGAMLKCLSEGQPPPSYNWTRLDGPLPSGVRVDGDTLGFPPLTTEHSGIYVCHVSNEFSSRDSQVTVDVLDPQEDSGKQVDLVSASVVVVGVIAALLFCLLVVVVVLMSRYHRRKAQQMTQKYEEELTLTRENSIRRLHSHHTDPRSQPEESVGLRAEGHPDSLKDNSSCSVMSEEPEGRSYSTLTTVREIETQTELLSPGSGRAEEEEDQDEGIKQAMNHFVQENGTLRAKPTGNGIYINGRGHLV
Experiment: Nectin-4 competition binding assay (fluorescence polarisation)
Settings: competition with fluorescent peptide SEQ ID NO: 217; read-out: Ki
Experimental: Peptides were diluted to an appropriate concentration in assay buffer as described in the direct binding assay with a maximum of 5% DMSO, then serially diluted 1 in 2. Five μL of diluted peptide was added to the plate followed by 10 μL of human Nectin-4, then 10 μL fluorescent peptide added. Measurements were conducted as for the direct binding assay, however the gain was determined prior to the first measurement. Data analysis was in Systat Sigmaplot version 12.0 where the mP values were fit to a user defined cubic equation to generate a Ki value: • f=ymin+(ymax−ymin)/Lig*((Lig*((2*((Klig+Kcomp+Lig+Comp-Prot*c)^2-3*(Kcomp*(Lig-Prot*c)+Klig*(Comp-Prot*c)+Klig*Kcomp))^0.5*COS(ARCCOS((−2*(Klig+Kcomp+Lig+Comp-Prot*c)^3+9*(Klig+Kcomp+Lig+Comp-Prot*c)*(Kcomp*(Lig-Prot*c)+Klig*(Comp-Prot*c)+Klig*Kcomp)−27*(−1*Klig*Kcomp*Prot*c)/(2*((((Klig+Kcomp+Lig+Comp-Prot*c)^2−3*(Kcomp*(Lig-Prot*c)+Klig*(Comp-Prot*c)+Klig*Kcomp))^3)^0.5)))/3))−(Klig+Kcomp+Lig+Comp-Prot*c)))/((3*Klig)+((2*((Klig+Kcomp+Lig+Comp-Prot*c)^2−3*(Kcomp*(Lig-Prot*c)+Klig*(Comp-Prot*c)+Klig*Kcomp))^0.5*COS (ARCCOS ((−2*(Klig+Kcomp+Lig+Comp-Prot*c)^3+9*(Klig+Kcomp+Lig+Comp-Prot*c)*(Kcomp*(Lig-Prot*c)+Klig*(Comp-Prot*c)+Klig*Kcomp)-27*(−1*Klig*Kcomp*Prot*c))/(2*((((Klig+Kcomp+Lig+Comp-Prot*c)^2-3*(Kcomp*(Lig-Prot*c)+Klig*(Comp-Prot+c)+Klig*Kcomp))^3)^0.5))/3)−(Klig+Kcomp+Lig+Comp-Prot*c)))).
“Lig”, “KLig” and “Prot” were all defined values relating to: fluorescent peptide concentration, the Kd of the fluorescent peptide and Nectin concentration respectively.

SMILES | Ki [nM]
CC[C@H](C)[C@@H]1NC(=O)[C@@H]2CCCN2C(=O)[C@H](Cc2c[nH]c3ccccc23)NC(=O)[C@H](CO)NC(=O)[C@H](Cc2c[nH]c3ccccc23)NC(=O)[C@H](CO)NC(=O)[C@H](CCCCN)NC(=O)[C@H](CCSC)NC(=O)[C@@H]2CSCCC(=O)N3CN(CN(C3)C(=O)CCSC[C@H](NC(=O)[C@H](CO)NC(=O)[C@H](CC(=O)O)NC(=O)[C@@H](N)Cc3c[nH]cn3)C(=O)N3CCC[C@H]3C(=O)N[C@@H](Cc3ccccc3)C(=O)NCC(=O)N2)C(=O)CCSC[C@@H](C(=O)N[C@@H](C)C(N)=O)NC(=O)[C@H](Cc2c[nH]c3ccccc23)NC1=O [BCY3393, HDS-(SEQ ID NO: 51)-A] (H-HDSCPFGCMKSWSWPIWCA-NH2; linker 4-8-18 via TATA) | 173
CC[C@H](C)[C@@H]1NC(=O)[C@@H]2CCCN2C(=O)[C@H](Cc2c[nH]c3ccccc23)NC(=O)[C@H](CO)NC(=O)[C@H](Cc2c[nH]c3ccccc23)NC(=O)[C@H]([C@@H](C)O)NC(=O)[C@H](CCCCN)NC(=O)[C@H](CCSC)NC(=O)[C@@H]2CSCCC(=O)N3CN(CN(C3)C(=O)CCSC[C@H](NC(=O)[C@H](C)N)C(=O)N3CCC[C@H]3C(=O)N[C@@H](Cc3ccccc3)C(=O)NCC(=O)N2)C(=O)CCSC[C@@H](C(=O)N[C@H](C(=O)N[C@@H](CC(=O)O)C(=O)N[C@@H](CCCCN)C(N)=O)[C@@H](C)O)NC(=O)[C@H](Cc2c[nH]c3ccccc23)NC1=O [BCY3394, A-(SEQ ID NO: 52)-TDK] (H-ACPFGCMKTWSWPIWCTDK-NH2; linker 2-6-16 via TATA; N-terminus and C-terminus assumed) | 102
CC[C@H](C)[C@@H]1NC(=O)[C@@H]2CCCN2C(=O)[C@H](Cc2c[nH]c3ccccc23)NC(=O)[C@H](CO)NC(=O)[C@H](Cc2c[nH]c3ccccc23)NC(=O)CNC(=O)[C@H](CCCCN)NC(=O)[C@H](CCSC)NC(=O)[C@@H]2CSCCC(=O)N3CN(CN(C3)C(=O)CCSC[C@H](NC(=O)[C@H](C)N)C(=O)N3CCC[C@H]3C(=O)N[C@@H](Cc3ccccc3)C(=O)NCC(=O)N2)C(=O)CCSC[C@@H](C(=O)N[C@@H](CC(C)C)C(=O)N[C@@H](CCCCN)C(=O)N[C@@H](CC(=O)O)C(N)=O)NC(=O)[C@H](Cc2c[nH]c3ccccc23)NC1=O [BCY3395, A-(SEQ ID NO: 53)-LKD] (H-ACPFGCMKGWSWPIWCLKD-NH2; linker 2-6-16 via TATA; N-terminus and C-terminus assumed) | 17.4
CC[C@H](C)[C@@H]1NC(=O)[C@@H]2CCCN2C(=O)[C@H](Cc2c[nH]c3ccccc23)NC(=O)[C@H](CO)NC(=O)[C@H](Cc2c[nH]c3ccccc23)NC(=O)[C@H](Cc2c[nH]cn2)NC(=O)[C@H](CCC(=O)O)NC(=O)[C@H](CCC(N)=O)NC(=O)[C@@H]2CSCCC(=O)N3CN(CN(C3)C(=O)CCSC[C@H](NC(=O)[C@H](C)N)C(=O)N3CCC[C@H]3C(=O)N[C@@H](Cc3ccccc3)C(=O)NCC(=O)N2)C(=O)CCSC[C@@H](C(=O)N[C@H](C(=O)N[C@H](C(=O)N[C@@H](C)C(N)=O)[C@@H](C)O)[C@@H](C)O)NC(=O)[C@H](Cc2c[nH]c3ccccc23)NC1=O [BCY3396, A-(SEQ ID NO: 54)-TTA] (H-ACPFGCQEHWSWPIWCTTA-NH2; linker 2-6-16 via TATA; N-terminus and C-terminus assumed) | 102
CC[C@H](C)[C@@H]1NC(=O)[C@@H]2CSCCC(=O)N3CN(CN(C3)C(=O)CCSC[C@H](NC(=O)[C@H](C)N)C(=O)N3CCC[C@H]3C(=O)N[C@@H](Cc3ccccc3)C(=O)NCC(=O)N2)C(=O)CCSC[C@@H](C(=O)N[C@@H](CCC(N)=O)C(=O)N[C@@H](CCSC)C(=O)N[C@@H](CCC(=O)O)C(N)=O)NC(=O)[C@H](Cc2c[nH]c3ccccc23)NC(=O)[C@H]([C@@H](C)CC)NC(=O)[C@@H]2CCCN2C(=O)[C@H](Cc2c[nH]c3ccccc23)NC(=O)[C@H](CO)NC(=O)[C@H](Cc2c[nH]c3ccccc23)NC(=O)[C@H](CO)NC(=O)[C@H](CCCCN)NC1=O [BCY3397, A-(SEQ ID NO: 55)-QME] (H-ACPFGCIKSWSWPIWCQME-NH2; linker 2-6-16 via TATA; N-terminus and C-terminus assumed) | 33.2
